For orientation: IC50 means the point on the concentration scale where inhibition reaches its midpoint. The low end stands for greater potency in that assay, the high end for weaker potency in that assay. Usually melting point stands for the temperature of the solid-liquid transition.

Among the data in patent US8071797B2 (priority 2008, dated 2011) are IC50 and melting point values, retold here.

Data set [1] concerns the target T1, HCV polymerase (NS5B570n-Con1) (Hepatitis C virus genotype 1b, UniProt Q9WMX2).
T1 construct: contains a 21 amino acid deletion at the C-terminus relative to the full-length HCV polymerase; 6-histidine (N); made in house; host or cells: E. coli BL21 (DE) pLysS
Description: HCV NS5B RNA polymerase activity assay. Type of data set: biochemical, HCV Con1 strain. Conditions: IC50 NS5B polymerase assay, Table I. The method, boiled down: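 His6-tagged NS5B Con1 (genotype 1b, 21-aa C-terminal deletion; 20 nM) copied 20 nM cIRES RNA template with [3H]UTP plus 1 μM ATP, CTP and GTP in pH 8.0 Tris buffer with 4 mM MgCl2 and DTT, 2 h at 30 °C. TCA-precipitated RNA counted by scintillation. IC50 from four-parameter fit versus no-compound control, no-enzyme background subtracted.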

Data set [2] deals with HCV replicon cells (2209-23), genotype 1b replicon in Huh7 cells. Description: HCV replicon assay (Renilla luciferase reporter). The format is cell-based, HCV genotype 1b. Particulars: Hepatitis C virus, Huh-7, 72 h; cell line 2209-23, three days incubation. On the technique in general: A replicon is a self-replicating genome or part of one, used to study replication in cells.

Compound `CNC(=O)c1c(-c2ccc(Oc3ccccc3)cc2)oc2cc(N(CCO)S(C)(=O)=O)c(C3CC3)cc12` [Compound I-33] showed a melting point of 110 to 115 °C. This compound also registered an IC50 in data set [1] of 21 nM.

Regarding `CNC(=O)c1c(-c2ccc(Oc3ccc(F)cc3)cc2)oc2cc(NS(C)(=O)=O)c(C3CC3)cc12` [Compound I-40], the melting point was 169 to 170 °C. The compound further registered an IC50 in data set [1] of 98 nM.

`CNC(=O)c1c(-c2ccc(Oc3ccc(F)cc3)cc2)oc2cc(N(CCO)S(C)(=O)=O)ccc12` [Compound I-64, 2-[4-(4-Fluoro-phenoxy)-phenyl]-6-[(2-hydroxy-ethyl)-methanesulfonyl-amino]-benzofuran-3-carboxylic acid methylamide]: the melting point lay within 214.6 to 215.7 °C. Moreover, the IC50 in data set [1] was 415 nM.

Compound `CNC(=O)c1c(-c2ccc(Oc3ccc(F)cc3)cc2)oc2cc(N(CCN)S(C)(=O)=O)c(C3CC3)cc12.Cl` [Compound I-74] displayed a melting point of 223 to 224 °C. This compound also showed an IC50 in data set [1] of 83 nM.

As to `CNC(=O)c1c(-c2ccc(Oc3ccccc3)cc2)oc2cc(N3CCOCC3)c(C3CC3)cc12` [Compound I-77], the melting point is 223.4 to 223.9 °C. Besides, in data set [1], the IC50 came to 672 nM.

For the compound `CNC(=O)c1c(-c2ccc(Oc3ccccc3)cc2)oc2cc(N3CCCS3(=O)=O)c(C3CC3)cc12` [Compound I-82, 5-Cyclopropyl-6-(1,1-dioxo-1λ^6-isothiazolidin-2-yl)-2-(4-phenoxy-phenyl)-benzofuran-3-carboxylic acid methylamide], the melting point fell in the range of 174 to 176 °C. For the same compound, in data set [1], 66 nM corresponded to half-maximal inhibition (IC50).

Compound `CNC(=O)c1c(-c2ccc(Oc3ccc(F)cc3)cc2)oc2cc(N(CCS(C)(=O)=O)S(C)(=O)=O)c(C3CC3)cc12` [Compound I-83, 5-cyclopropyl-2-[4-(4-fluoro-phenoxy)-phenyl]-6-[methanesulfonyl-(2-methanesulfonyl-ethyl)-amino]-benzofuran-3-carboxylic acid methylamide] returned a melting point of 158 to 160 °C. In addition, the IC50 in data set [1] is 29 nM.

With `CNC(=O)c1c(-c2ccc(Oc3ccccc3)cc2)oc2cc(N3CCCCS3(=O)=O)c(C3CC3)cc12` [Compound I-93], the melting point fell in the range of 197 to 199 °C. For the same compound, in data set [1], the IC50 stood at 71 nM.

`CNC(=O)c1c(-c2ccc(Oc3ccccc3)cc2)oc2cc(N3CCNS3(=O)=O)c(C3CC3)cc12` [Compound I-102, 5-Cyclopropyl-6-(1,1-dioxo-1λ^6-[1,2,5]thiadiazolidin-2-yl)-2-(4-phenoxy-phenyl)-benzofuran-3-carboxylic acid methylamide] showed a melting point of 183.4 to 184.5 °C. Besides, the IC50 in data set [1] is 20 nM.

`CNC(=O)c1c(-c2ccc(Oc3ccc(F)cc3)cc2)oc2cc(C(C)=O)c(OC)cc12` [Compound I-104] yielded a melting point of 207 to 209 °C. In data set [1], this compound came in with an IC50 of 139 nM.

On to `CNC(=O)c1c(-c2ccc(Oc3ccccc3)cc2)oc2cc(N3CCN(C)S3(=O)=O)c(C3CC3)cc12` [Compound I-105, 5-Cyclopropyl-6-(5-methyl-1,1-dioxo-1λ^6-[1,2,5]thiadiazolidin-2-yl)-2-(4-phenoxy-phenyl)-benzofuran-3-carboxylic acid methylamide], for which the melting point was in the range of 105 to 107 °C. 41 nM corresponded to half-maximal inhibition in data set [1] (IC50).

Consider `CNC(=O)c1c(-c2ccc(Oc3ccc(F)cc3)cc2)oc2cc(N(CC(N)CO)S(C)(=O)=O)c(C3CC3)cc12.Cl` (stereo not drawn) [Compound I-107], for which the melting point is 178 to 180 °C. Moreover, the midpoint of inhibition in data set [1], the IC50, lay at 19 nM.

On to `CNC(=O)c1c(-c2ccc(Oc3ccc(F)cc3)cc2)oc2cc(N(CCCNS(C)(=O)=O)S(C)(=O)=O)c(C3CC3)cc12` [Compound I-116], for which the IC50 in data set [2] was 4 nM.

In turn, `CNC(=O)c1c(-c2ccc(Nc3ccccn3)cc2)oc2cc(N(CCO)S(C)(=O)=O)c(OC)cc12` [Compound I-123] displayed a melting point of 241 to 243 °C. For the same compound, the half-inhibitory concentration (IC50) in data set [1] was 156 nM.
